Target: Isoform Alpha-4-2 of Neuronal acetylcholine receptor subunit alpha-4 (Alpha-4-2) (Rattus norvegicus, UniProt P09483)
Test: Inhibition Assay

Chain of Isoform Alpha-4-2 of Neuronal acetylcholine receptor subunit alpha-4 (Alpha-4-2) (P09483 as listed by the source): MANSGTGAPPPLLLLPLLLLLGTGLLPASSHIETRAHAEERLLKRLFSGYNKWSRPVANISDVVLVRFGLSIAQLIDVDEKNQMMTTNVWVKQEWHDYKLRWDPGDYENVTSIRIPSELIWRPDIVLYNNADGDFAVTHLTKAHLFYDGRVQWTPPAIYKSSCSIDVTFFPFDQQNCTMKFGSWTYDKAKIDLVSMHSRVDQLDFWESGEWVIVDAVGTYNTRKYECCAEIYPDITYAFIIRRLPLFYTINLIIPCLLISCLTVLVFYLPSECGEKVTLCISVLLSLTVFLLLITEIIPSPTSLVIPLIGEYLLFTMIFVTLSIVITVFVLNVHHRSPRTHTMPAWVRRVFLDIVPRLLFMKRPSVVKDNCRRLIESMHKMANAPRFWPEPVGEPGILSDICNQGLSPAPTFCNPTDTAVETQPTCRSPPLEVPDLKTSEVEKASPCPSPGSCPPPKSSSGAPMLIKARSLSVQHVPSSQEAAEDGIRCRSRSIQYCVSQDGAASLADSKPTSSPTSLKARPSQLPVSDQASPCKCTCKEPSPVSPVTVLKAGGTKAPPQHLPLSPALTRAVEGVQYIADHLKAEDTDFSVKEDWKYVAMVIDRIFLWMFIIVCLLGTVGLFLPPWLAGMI

Structure (SMILES) | Ki
Fc1ncc(C2CC3CCC2N3)cc1-c1ccccc1 (stereo not drawn) [US9150581, RTI-7527-(-)-47] | 0.26 nM
Fc1ncc(C2CC3CCC2N3)cc1-c1cccc(Cl)c1 (racemic) [US9150581, RTI-7527-98] | 0.073 nM
